Key:
[1] = relative permittivity at various frequencies (dimensionless); conditions: 101.3 kPa, Liquid, Frequency=2 MHz, Parallel plate capacitor
[2] = for surface tension liquid-gas: Drop volume; for viscosity / speed of sound / mass density: 101.33 kPa; for viscosity / speed of sound / mass density / vapor or sublimation pressure: Liquid; for viscosity: Capillary tube (Ostwald / Ubbelohde) method; for speed of sound: Sing-around technique in a fixed-path interferometer; for mass density: Vibrating tube method; for vapor or sublimation pressure: Ebulliometric method (Recirculating still)
[3] = refractive index (Na D-line) (dimensionless); conditions: 101.33 kPa, Liquid, Standard Abbe refractometry

CCOC(=O)C(C)O (racemic) [DL-ethyl lactate]
Conditions | mass density, [2] [kg/m3] | refractive index, [3] | relative permittivity, [1] | speed of sound, [2] [m/s] | surface tension liquid-gas, [2] [mN/m] | vapor or sublimation pressure, [2] [kPa] | viscosity, [2] [mPa·s]
278.15 K | 1050.05 | – | 17.791 | 1354.5 | 31.47 | – | 4.479
280.65 K | 1047.37 | – | 17.538 | 1345.2 | 31.21 | – | 4.091
283.15 K | 1044.68 | 1.41751 | 17.219 | 1335.7 | 30.94 | – | 3.75
285.65 K | 1041.96 | 1.41644 | 16.961 | 1326.2 | 30.79 | – | 3.451
288.15 K | 1039.26 | 1.41528 | 16.736 | 1316.8 | 30.43 | – | 3.184
290.65 K | 1036.54 | 1.41414 | 16.496 | 1307.5 | 30.18 | – | 2.947
293.15 K | 1033.82 | 1.41301 | 16.166 | 1298.3 | 29.95 | – | 2.735
295.65 K | 1031.09 | 1.41188 | 15.961 | 1289 | 29.67 | – | 2.546
298.15 K | 1028.37 | 1.41074 | 15.711 | 1279.7 | 29.49 | – | 2.375
300.65 K | 1025.63 | 1.40959 | 15.448 | 1270.5 | 29.23 | – | 2.221
303.15 K | 1022.89 | 1.40843 | 15.18 | 1261.2 | 28.88 | 0.436 | 2.081
305.65 K | 1020.15 | 1.40729 | 14.917 | 1251.9 | 28.64 | – | 1.955
308.15 K | 1017.4 | 1.40615 | 14.639 | 1242.6 | 28.42 | 0.603 | 1.838
310.65 K | 1014.64 | 1.40501 | 14.373 | 1233.3 | 28.12 | – | 1.733
313.15 K | 1011.88 | 1.40381 | 14.107 | 1224 | 27.84 | 0.829 | 1.636
315.65 K | 1009.12 | 1.40267 | 13.843 | 1214.7 | 27.46 | – | 1.547
318.15 K | 1006.34 | 1.40152 | 13.573 | 1205.4 | 27.19 | 1.142 | 1.466
320.65 K | 1003.57 | 1.40036 | 13.298 | 1196.1 | 26.92 | – | 1.391
323.15 K | 1000.78 | 1.39918 | 13.045 | 1186.8 | 26.65 | 1.536 | 1.321
325.65 K | 997.99 | 1.39798 | 12.786 | 1177.6 | 26.29 | – | 1.255
328.15 K | 995.193 | 1.39684 | 12.538 | 1168.4 | 26.08 | 2.015 | 1.196
330.65 K | 992.389 | 1.3956 | 12.286 | 1159.1 | 25.92 | – | 1.14
333.15 K | 989.579 | 1.39448 | 12.044 | 1149.9 | 25.48 | 2.717 | 1.087
335.65 K | 986.763 | 1.3933 | 11.787 | 1140.7 | 25.32 | – | 1.037
338.15 K | 983.942 | 1.39215 | 11.495 | 1131.6 | 25.05 | 3.523 | 0.9907
343.15 K | – | – | – | – | – | 4.591 | –
348.15 K | – | – | – | – | – | 5.851 | –
353.15 K | – | – | – | – | – | 7.323 | –
358.15 K | – | – | – | – | – | 9.29 | –
363.15 K | – | – | – | – | – | 11.49 | –
368.15 K | – | – | – | – | – | 14.19 | –
373.15 K | – | – | – | – | – | 17.37 | –
378.15 K | – | – | – | – | – | 21.11 | –
383.15 K | – | – | – | – | – | 25.51 | –
388.15 K | – | – | – | – | – | 30.62 | –
393.15 K | – | – | – | – | – | 36.24 | –
398.15 K | – | – | – | – | – | 42.71 | –
403.15 K | – | – | – | – | – | 50.4 | –
408.15 K | – | – | – | – | – | 59.11 | –
413.15 K | – | – | – | – | – | 69.13 | –
418.15 K | – | – | – | – | – | 80.2 | –
423.15 K | – | – | – | – | – | 92.51 | –

From the NIST ThermoML archive (doi:10.1016/j.tca.2013.11.010)
